For ten compounds, TGI results are on record in PubChem BioAssay (NCI).

Some test systems named below: OVCAR-3 ovarian; SK-MEL-5 melanoma; COLO 205 colon; HOP-62 NSCLC; UACC-62 melanoma; EKVX NSCLC; NCI-H522 lung; SF-295 CNS; NCI-H23 lung; MDA-MB-231 breast; MOLT-4 leukemia; HCC-2998 colon; MCF7 breast; SF-268 CNS; HCT-15 colon; NCI/ADR-RES ovarian.
Holding throughout (assay): DTP human tumour cell line panel, 48 h

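Interpolation was linear, between the two tested concentrations surrounding the appropriate level; five concentrations were tested over 48 hours in 96-well plates. TGI: total growth inhibition.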

By TGI is commonly meant the concentration giving total growth inhibition.

With `CC(C)(C(=O)N(C(=O)N1CCN(c2ccccc2)CC1)S(=O)(=O)c1ccccc1)c1ccc(Cl)cc1`, the TGI in the assay with OVCAR-3 ovarian is 99.3 µM; in the assay on SK-MEL-5 melanoma it was more than 100 µM; with COLO 205 colon it was 42.7 µM; in the assay with HOP-62 NSCLC it was more than 100 µM; with UACC-62 melanoma, more than 100 µM; with EKVX NSCLC, 63.1 µM. The TGI with NCI-H522 lung is 26.3 µM; with SF-295 CNS, more than 100 µM; with NCI-H23 lung, more than 100 µM; in the assay on MDA-MB-231 breast, more than 100 µM; in the assay with MOLT-4 leukemia it was 17.6 µM; in the assay on HCC-2998 colon, more than 100 µM. The TGI in the assay on MCF7 breast, with SF-268 CNS, in the assay with HCT-15 colon and in the assay with NCI/ADR-RES ovarian was more than 100 µM in each case.

Turning to `Cc1ccc2c(n1)C(=O)c1cc(C)c(C)cc1C2=O`, the TGI in the assay on OVCAR-3 ovarian was 67.3 µM; in the assay with SK-MEL-5 melanoma, 79.1 µM; in the assay on COLO 205 colon, more than 100 µM; with HOP-62 NSCLC it was more than 100 µM; in the assay with UACC-62 melanoma it was more than 100 µM; with EKVX NSCLC it was more than 100 µM. For the same compound, the TGI in the assay on NCI-H522 lung is 56.8 µM; with SF-295 CNS it was more than 100 µM; with NCI-H23 lung, more than 100 µM; with MDA-MB-231 breast, more than 100 µM; in the assay with MOLT-4 leukemia it was more than 100 µM; with HCC-2998 colon, more than 100 µM. The TGI in the assay with MCF7 breast, in the assay on SF-268 CNS, in the assay with HCT-15 colon and in the assay with NCI/ADR-RES ovarian was more than 100 µM each time.

For `c1ccc([P+](Cc2ccc(C[P+](c3ccccc3)(c3ccccc3)c3ccccc3)s2)(c2ccccc2)c2ccccc2)cc1`, the TGI with OVCAR-3 ovarian, in the assay on SK-MEL-5 melanoma, in the assay on COLO 205 colon, in the assay with HOP-62 NSCLC, with UACC-62 melanoma and in the assay with EKVX NSCLC was more than 100 µM in each case. In addition, the TGI in the assay with NCI-H522 lung, in the assay on SF-295 CNS, with NCI-H23 lung, with MDA-MB-231 breast, in the assay on MOLT-4 leukemia and in the assay on HCC-2998 colon was more than 100 µM each time. The TGI with MCF7 breast, in the assay on SF-268 CNS, in the assay on HCT-15 colon and with NCI/ADR-RES ovarian was more than 100 µM throughout.

Turning to `CCCCCCCCCCCCCCCCNc1nc(=O)n(C2CC(O)C(COP(=O)(O)OC3CC(n4cc(F)c(=O)[nH]c4=O)OC3CO)O2)cc1F` (stereo not given), the TGI with OVCAR-3 ovarian is more than 100 µM; in the assay with SK-MEL-5 melanoma, more than 41.9 µM; in the assay with COLO 205 colon, 47.4 µM; with HOP-62 NSCLC it was 5.4 µM; in the assay on UACC-62 melanoma it was 17.3 µM; in the assay on EKVX NSCLC, 99.3 µM. Besides, the TGI in the assay with NCI-H522 lung was 55.4 µM; in the assay on SF-295 CNS, 18.9 µM; in the assay with NCI-H23 lung it was 19.4 µM; in the assay on MDA-MB-231 breast, more than 91.5 µM; with MOLT-4 leukemia, 17.9 µM; with HCC-2998 colon, 11 µM. For the same compound, the TGI in the assay on MCF7 breast is 97.1 µM; in the assay with SF-268 CNS it was more than 34.2 µM; in the assay with HCT-15 colon, 50.9 µM; in the assay on NCI/ADR-RES ovarian, 46 µM.

With `COc1ccc(-n2c(C)nc3ccc(NC4OC(COC(C)=O)C(OC(C)=O)C(OC(C)=O)C4OC(C)=O)cc3c2=O)cc1` (stereo not given), the TGI is more than 100 µM in the assay with OVCAR-3 ovarian; more than 100 µM in the assay with SK-MEL-5 melanoma; 49.4 µM in the assay with COLO 205 colon; more than 100 µM with HOP-62 NSCLC; more than 100 µM in the assay on UACC-62 melanoma; more than 100 µM in the assay with EKVX NSCLC. For the same compound, the TGI is 47.5 µM in the assay on NCI-H522 lung; more than 100 µM in the assay on SF-295 CNS; more than 100 µM with NCI-H23 lung; more than 100 µM in the assay on MDA-MB-231 breast; 80.8 µM with MOLT-4 leukemia; more than 100 µM with HCC-2998 colon. Further, the TGI in the assay on MCF7 breast, in the assay on SF-268 CNS, with HCT-15 colon and in the assay with NCI/ADR-RES ovarian was more than 100 µM throughout.

For the compound `COc1ccc(-n2c(C)nc3ccc(NC4OCC(OC(C)=O)C(OC(C)=O)C4OC(C)=O)cc3c2=O)cc1` (stereo not given), the TGI with OVCAR-3 ovarian, in the assay with SK-MEL-5 melanoma, in the assay on COLO 205 colon, in the assay with HOP-62 NSCLC, in the assay on UACC-62 melanoma and in the assay on EKVX NSCLC was more than 100 µM throughout. Further, the TGI with NCI-H522 lung, in the assay with SF-295 CNS, in the assay on NCI-H23 lung, in the assay with MDA-MB-231 breast, with MOLT-4 leukemia and in the assay on HCC-2998 colon was more than 100 µM in each case. Also, the TGI in the assay with MCF7 breast, in the assay on SF-268 CNS, with HCT-15 colon and with NCI/ADR-RES ovarian was more than 100 µM each time.

As for `COc1ccc2c(c1)C1Oc3ccccc3CC1CO2` (stereo not given), the TGI with OVCAR-3 ovarian, with SK-MEL-5 melanoma, with COLO 205 colon, in the assay with HOP-62 NSCLC, in the assay with UACC-62 melanoma and in the assay with EKVX NSCLC was more than 100 µM each time. The TGI in the assay on NCI-H522 lung was more than 100 µM; in the assay with SF-295 CNS, more than 100 µM; in the assay with NCI-H23 lung it was more than 100 µM; with MDA-MB-231 breast, more than 100 µM; with MOLT-4 leukemia, 52.9 µM; with HCC-2998 colon, 42.7 µM. The TGI in the assay with MCF7 breast, in the assay with SF-268 CNS, with HCT-15 colon and in the assay with NCI/ADR-RES ovarian was more than 100 µM each time.

As to `CC1=NN(c2nc(N)nc(CCl)n2)C(C)(C)C1`, the TGI was more than 51.8 µM with OVCAR-3 ovarian; more than 56 µM in the assay on SK-MEL-5 melanoma; more than 58 µM in the assay with COLO 205 colon; 19.1 µM in the assay on HOP-62 NSCLC; 32.5 µM in the assay with UACC-62 melanoma; 42.1 µM in the assay with EKVX NSCLC. Further, the concentration for total growth inhibition (TGI) was 2.94 µM in the assay with NCI-H522 lung; more than 74.5 µM in the assay on SF-295 CNS; 28.6 µM in the assay with NCI-H23 lung; 85.7 µM in the assay on MDA-MB-231 breast; 50 µM in the assay with MOLT-4 leukemia; 66.1 µM in the assay with HCC-2998 colon. For the same compound, the TGI is more than 100 µM with MCF7 breast, 68 µM with SF-268 CNS, 55.9 µM with HCT-15 colon and 35 µM with NCI/ADR-RES ovarian.

Take `CC1(C)COC(c2cccc(C(=O)c3ccccc3)c2)=N1`: the TGI with OVCAR-3 ovarian was more than 100 µM; with SK-MEL-5 melanoma it was 32.1 µM; in the assay with COLO 205 colon, more than 100 µM; with HOP-62 NSCLC it was more than 100 µM; in the assay with UACC-62 melanoma, more than 100 µM; in the assay with EKVX NSCLC, more than 100 µM. Besides, the TGI was 88.1 µM with NCI-H522 lung; more than 100 µM in the assay on SF-295 CNS; more than 100 µM in the assay with NCI-H23 lung; more than 100 µM with MDA-MB-231 breast; 75.9 µM in the assay on MOLT-4 leukemia; more than 100 µM in the assay with HCC-2998 colon. Further, the TGI in the assay on MCF7 breast, with SF-268 CNS, in the assay with HCT-15 colon and in the assay on NCI/ADR-RES ovarian was more than 100 µM in each case.

With `NC(N)=NS(=O)(=O)c1ccc(NCc2cccc3c(=O)c4ccc(Cl)cc4oc23)cc1`, the TGI was more than 18.3 µM in the assay on OVCAR-3 ovarian; more than 16.5 µM in the assay on SK-MEL-5 melanoma; more than 20.3 µM with COLO 205 colon; more than 18.9 µM with HOP-62 NSCLC; more than 24.1 µM in the assay on UACC-62 melanoma; more than 21.9 µM in the assay on EKVX NSCLC. The TGI in the assay on NCI-H522 lung is more than 7.85 µM; with SF-295 CNS, more than 14.9 µM; in the assay on NCI-H23 lung, more than 21.8 µM; in the assay with MDA-MB-231 breast, more than 15.6 µM; with MOLT-4 leukemia, more than 20.1 µM; with HCC-2998 colon it was more than 25 µM. Besides, the TGI in the assay with MCF7 breast is more than 25 µM; in the assay with SF-268 CNS, 12.7 µM; with HCT-15 colon, more than 20 µM; with NCI/ADR-RES ovarian, more than 14 µM.
